In one test the target is KRAS WT (Homo sapiens (Human), UniProt P01116). Nature of the test: KRAS WT Biochemical Assay, BODIPY-GDP Exchange TR-FRET (Example 502; 0.06 nM KRAS WT, 15 nM GDP, 300 nM SOS1, 120-minute incubation). The settings on record: read-out: KRas HTRF IC50. The procedure, abridged: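 Biotin-tagged recombinant KRAS WT (0.06 nM) preloaded with 15 nM GDP and Tb-streptavidin, 10 min RT, then exchange started with 300 nM SOS1 plus 300 nM BODIPY-GDP in HEPES pH 7.5 buffer with MgCl2. TR-FRET 520/490 ratio read after 120 min; normalized to DMSO and full-inhibition control; IC50 from 4-parameter fit.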
KRAS WT, sequence (P01116-2 other isoform, or with tags, fused parts or gaps): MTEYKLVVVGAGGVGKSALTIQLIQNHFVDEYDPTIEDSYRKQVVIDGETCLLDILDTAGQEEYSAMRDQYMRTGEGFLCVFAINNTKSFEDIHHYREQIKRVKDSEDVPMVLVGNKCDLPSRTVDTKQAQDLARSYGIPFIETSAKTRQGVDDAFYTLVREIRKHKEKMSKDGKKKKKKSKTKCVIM
(In general: In TR-FRET formats the signal depends on donor and acceptor labels being close together.)

Another test has as its target KRAS G12D (Homo sapiens (Human), UniProt P01116, G12D). Nature of the test: KRAS G12D LoEnz Biochemical Assay, BODIPY-GDP Exchange TR-FRET (SOS1-mediated nucleotide exchange). The settings on record: read-out: KRas (G12D) GDP HTRF IC50.

By IC50 is commonly meant the concentration that gives 50% inhibition.

KRAS G12D, sequence (P01116-2 other isoform, or with tags, fused parts or gaps G12D): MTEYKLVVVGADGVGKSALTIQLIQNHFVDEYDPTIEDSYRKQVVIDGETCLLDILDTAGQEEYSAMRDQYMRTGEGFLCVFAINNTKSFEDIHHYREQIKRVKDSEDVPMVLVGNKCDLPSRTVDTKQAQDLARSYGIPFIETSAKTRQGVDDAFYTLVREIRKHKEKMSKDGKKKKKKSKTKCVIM

On to `Cc1c(F)c(N)cc(-c2nc3c4c(nc(OC[C@@H]5[C@@H]6CCN5CCO6)nc4c2F)N2C[C@H]4CC[C@H](N4)[C@H]2[C@H](C)O3)c1C(F)(F)F` [Compound 136, 5-((5S,5aS,6S,9R)-12-(((5S,8R)-4-Oxa-1-azabicyclo[3.2.1]octan-8-yl)methoxy)-1-fluoro-5-methyl-5a,6,7,8,9,10-hexahydro-5H-4-oxa-3,10a,11,13,14-pentaaza-6,9-methanonaphtho[1,8-ab]heptalen-2-yl)-2-fluoro-3-methyl-4-(trifluoromethyl)aniline], for which the values for the IC50 on KRAS WT and at KRAS G12D were 90.8 nM and 0.38 nM, respectively.

Regarding `Cc1c(F)c(N)cc(-c2nc3c4c(nc(OCCCN5CCOCC5)nc4c2F)N2C[C@H]4CC[C@H](N4)[C@H]2[C@H](C)O3)c1C(F)(F)F` [Compound 138, 2-Fluoro-5-((5S,5aS,6S,9R)-1-fluoro-5-methyl-12-(3-morpholinopropoxy)-5a,6,7,8,9,10-hexahydro-5H-4-oxa-3,10a,11,13,14-pentaaza-6,9-methanonaphtho[1,8-ab]heptalen-2-yl)-3-methyl-4-(trifluoromethyl)aniline], the values for the half-maximal inhibitory concentration (IC50) on KRAS WT and at KRAS G12D were 115 nM and 0.42 nM, respectively.

As for `Cc1c(F)c(N)cc(-c2nc3c4c(nc(OCC56C[C@H](F)CN5C[C@@H](F)C6)nc4c2F)N2C[C@H]4CC[C@H](N4)[C@H]2[C@H](C)O3)c1C(F)(F)F` [Compound 139, 5-((5S,5aS,6S,9R)-12-(((2S,6S)-2,6-Difluorotetrahydro-1H-pyrrolizin-7a(5H)-yl)methoxy)-1-fluoro-5-methyl-5a,6,7,8,9,10-hexahydro-5H-4-oxa-3,10a,11,13,14-pentaaza-6,9-methanonaphtho[1,8-ab]heptalen-2-yl)-2-fluoro-3-methyl-4-(trifluoromethyl)aniline], the IC50 is 780 nM on KRAS WT and 2.41 nM on KRAS G12D.

Consider `Cc1c(F)c(N)cc(-c2nc3c4c(nc(OCC56C[C@@H](F)CN5C[C@H](F)C6)nc4c2F)N2C[C@H]4CC[C@H](N4)[C@H]2[C@H](C)O3)c1C(F)(F)F` [Compound 140, 5-((5S,5aS,6S,9R)-12-(((2R,6R)-2,6-Difluorotetrahydro-1H-pyrrolizin-7a(5H)-yl)methoxy)-1-fluoro-5-methyl-5a,6,7,8,9,10-hexahydro-5H-4-oxa-3,10a,11,13,14-pentaaza-6,9-methanonaphtho[1,8-ab]heptalen-2-yl)-2-fluoro-3-methyl-4-(trifluoromethyl)aniline], for which the half-maximal inhibitory concentration (IC50) came to 18.4 nM at KRAS WT and 0.14 nM at KRAS G12D.

As to `Cc1c(F)c(N)cc(-c2nc3c4c(nc(OC[C@]56C[C@H](F)CN5C[C@H](F)C6)nc4c2F)N2C[C@H]4CC[C@H](N4)[C@H]2[C@H](C)O3)c1C(F)(F)F` [Compound 141, 5-((5S,5aS,6S,9R)-12-(((2R,6S,7ar)-2,6-Difluorotetrahydro-1H-pyrrolizin-7a(5H)-yl)methoxy)-1-fluoro-5-methyl-5a,6,7,8,9,10-hexahydro-5H-4-oxa-3,10a,11,13,14-pentaaza-6,9-methanonaphtho[1,8-ab]heptalen-2-yl)-2-fluoro-3-methyl-4-(trifluoromethyl)aniline], the figures for the IC50 at KRAS WT and on KRAS G12D were 85 nM and 0.26 nM, respectively.

Regarding `Cc1c(F)c(N)cc(-c2nc3c4c(nc(OC[C@@]56C[C@H](F)CN5C[C@H](F)C6)nc4c2F)N2C[C@H]4CC[C@H](N4)[C@H]2[C@H](C)O3)c1C(F)(F)F` [Compound 142, 5-((5S,5aS,6S,9R)-12-(((2R,6S,7as)-2,6-Difluorotetrahydro-1H-pyrrolizin-7a(5H)-yl)methoxy)-1-fluoro-5-methyl-5a,6,7,8,9,10-hexahydro-5H-4-oxa-3,10a,11,13,14-pentaaza-6,9-methanonaphtho[1,8-ab]heptalen-2-yl)-2-fluoro-3-methyl-4-(trifluoromethyl)aniline], the IC50 on KRAS WT was 33.2 nM; at KRAS G12D it was 0.2 nM.

Consider `Cc1c(F)c(N)cc(-c2nc3c4c(nc(OC[C@H](F)CN5CC6(COC6)C5)nc4c2F)N2C[C@H]4CC[C@H](N4)[C@H]2[C@H](C)O3)c1C(F)(F)F` [Compound 144], for which the IC50 at KRAS WT worked out at 99.5 nM; at KRAS G12D it was 0.5 nM.

Take `Cc1c(F)c(N)cc(-c2nc3c4c(nc(OC[C@@H](F)CN5CC6(COC6)C5)nc4c2F)N2C[C@H]4CC[C@H](N4)[C@H]2[C@H](C)O3)c1C(F)(F)F` [Compound 145]: the half-maximal inhibitory concentration (IC50) stood at 171 nM at KRAS WT and 0.67 nM on KRAS G12D.

On to `Cc1c(F)c(N)cc(-c2nc3c4c(nc(OC[C@@H](F)CN5CC(CO)(CO)C5)nc4c2F)N2C[C@H]4CC[C@H](N4)[C@H]2[C@H](C)O3)c1C(F)(F)F` [Compound 146], for which the IC50 on KRAS WT came to 114 nM; on KRAS G12D, 0.76 nM.

As for `Cc1c(F)c(N)cc(-c2nc3c4c(nc(OCCC5(N6CCOCC6)COC5)nc4c2F)N2C[C@H]4CC[C@H](N4)[C@H]2[C@H](C)O3)c1C(F)(F)F` [Compound 149, 2-Fluoro-5-((5S,5aS,6S,9R)-1-fluoro-5-methyl-12-(2-(3-morpholinooxetan-3-yl)ethoxy)-5a,6,7,8,9,10-hexahydro-5H-4-oxa-3,10a,11,13,14-pentaaza-6,9-methanonaphtho[1,8-ab]heptalen-2-yl)-3-methyl-4-(trifluoromethyl)aniline], the IC50 is 5450 nM on KRAS WT and 18.4 nM on KRAS G12D.

Regarding `Cc1c(F)c(N)cc(-c2nc3c4c(nc(OCC[C@@H]5CC[C@H]6COCCN56)nc4c2F)N2C[C@H]4CC[C@H](N4)[C@H]2[C@H](C)O3)c1C(F)(F)F` [Compound 154, 2-Fluoro-5-((5S,5aS,6S,9R)-1-fluoro-12-(2-((6S,8aS)-hexahydro-1H-pyrrolo[2,1-c][1,4]oxazin-6-yl)ethoxy)-5-methyl-5a,6,7,8,9,10-hexahydro-5H-4-oxa-3,10a,11,13,14-pentaaza-6,9-methanonaphtho[1,8-ab]heptalen-2-yl)-3-methyl-4-(trifluoromethyl)aniline], the IC50 came to 118 nM at KRAS WT and 0.47 nM at KRAS G12D.

Turning to `C[C@@H]1Oc2nc(-c3cc(N)c(F)c(F)c3C(F)(F)F)c(F)c3nc(OCC45CCN4CC(F)(F)C5)nc(c23)N2C[C@H]3CC[C@H](N3)[C@@H]12` (stereo partly drawn) [Compound 155, 5-((5S,5aS,6S,9R)-12-((3,3-difluoro-1-azabicyclo[3.2.0]heptan-5-yl)methoxy)-1-fluoro-5-methyl-5a,6,7,8,9,10-hexahydro-5H-4-oxa-3,10a,11,13,14-pentaaza-6,9-methanonaphtho[1,8-ab]heptalen-2-yl)-2,3-difluoro-4-(trifluoromethyl)aniline], the IC50 was 31.5 nM at KRAS WT and 0.22 nM at KRAS G12D.

With `C[C@@H]1Oc2nc(-c3cc(N)cc(F)c3C(F)(F)F)c(F)c3nc(OCC4CCC5N4CCOC5(C)C)nc(c23)N2C[C@H]3CC[C@H](N3)[C@@H]12` (stereo partly drawn) [Compound 157, 3-((5S,5aS,6S,9R)-12-((1,1-Dimethylhexahydro-1H-pyrrolo[2,1-c][1,4]oxazin-6-yl)methoxy)-1-fluoro-5-methyl-5a,6,7,8,9,10-hexahydro-5H-4-oxa-3,10a,11,13,14-pentaaza-6,9-methanonaphtho[1,8-ab]heptalen-2-yl)-5-fluoro-4-(trifluoromethyl)aniline], the IC50 at KRAS WT came out at 45.6 nM; at KRAS G12D, 0.55 nM.

These data come from patent US20240025919A1, “AZA-TETRACYCLIC OXAZEPINE COMPOUNDS AND USES THEREOF” (Genentech, Inc., priority 2022, published 2024).
